Data from patent publication US20240182603A1, “SULFUR-S[…] TO STABILIZE OLIGOSACCHARIDE” (Brandeis University, priority 2021, published 2024).

Tested on: HIV broadly neutralizing antibody 2G12
Experiment: STD-NMR (Saturation Transfer Difference NMR) binding analysis with 2G12 IgG
Conditions: for mannose unit showing greatest saturation transfer (STD): pH 6.7 deuterated phosphate buffered saline, saturation time 3 s; for recognition by neutralizing HIV antibody 2G12: summary in Discussion, contacts similar to natural oligomannose
Description: With these S-Man3 and S-Man4 derivatives in hand, their recognition by HIV broadly neutralizing antibody 2G12 was studied. 2G12 binds primarily to the linear trimannose (D1) arm of Man9GlcNAc2. […] The temperature was 298 K for S-Man3 14 and 293 K for S-Man4 21 in order to move the HDO peak to avoid covering an anomeric resonance. The experiments were performed without suppression of the residual HDO signal. On-resonance frequencies of 0.86 ppm δ (protein aliphatic) and 7 ppm δ (protein aromatic) were applied for S-Man3 14 and […] S-Man4 21, respectively, in both cases with a saturation time of 3 s and an off-resonance frequency of 40 ppm δ.
In the case of the Man4 derivative, negligible STD is observed for the reducing-terminal mannose unit.

[1] = 25 μM 2G12 IgG, 200:1 sugar:antibody

Row | Compound | mannose unit showing greatest saturation transfer (STD) [1] | recognition by neutralizing HIV antibody 2G12 | STD observed for the reducing-terminal mannose unit (25 μM 2G12 IgG, 200:1 sugar:antibody, 293 K)
1 | NCCO[C@H]1O[C@H](CO)[C@@H](O)[C@H](O)[C@@H]1S[C@H]1O[C@H](CO)[C@@H](O)[C@H](O)[C@@H]1O[C@H]1O[C@H](CO)[C@@H](O)[C@H](O)[C@@H]1O [compound 14, 2-aminoethyl-[α-D-mannopyranosyl-(1→2)-2-S-{α-D-mannopyranosyl-(1→2)}]-α-D-mannopyranoside] | greatest saturation transfer is seen for the non-reducing mannose unit | recognized | –
2 | [N-]=[N+]=NC1CCC(O[C@@H]2OC(CO)[C@@H](O)[C@H](O[C@H]3OC(CO)[C@@H](O)[C@H](O)C3O[C@H]3OC(CO)[C@@H](O)[C@H](O)C3S[C@H]3OC(CO)[C@@H](O)[C@H](O)C3O)C2O)CC1 (stereo partly drawn) [compound 21, Trans-azidocyclohexyl-3-O-[{α-D-mannopyranosyl-(1→2)}-2-O-{α-D-mannopyranosyl-(1→2)}-2-S-{α-D-mannopyranosyl-(1→2)}]-β-D-mannopyranoside] | greatest saturation transfer is seen for the non-reducing mannose unit | recognized | negligible
